{
  "source": "patent US7504117B2",
  "about": "“Extract of Nelumbinis Semen for the treatment of depression” (Purimed Co., Ltd., priority 2003, dated 2009)",
  "type_in_all_cases": "in vivo",
  "key": {"WBC": {"system": "WBC", "assay": "WBC counting in rat blood (volume, conductivity, light scattering)", "method": "Thirdly, changes in WBC cell number, which is a representative marker to determine whether the immune suppression has been overcome, according to administration of the Nelumbinis Semen extract, was examined, as follows. After blood samples were collected from rats, cell volume, conductivity and light scattering were measured.\nCell volume was measured according to the Coulter Principle, which is universally recognized as a reference method for sizing of volumes. An aperture between two electrodes is placed in a cell flow, and direct current flows between the electrodes. When WBC maintained at nearly natural states passes through the aperture, electrical resistance to the direct current flow increases, thus generating a voltage pulse being in proportion to cell volumes. The size of the pulse is one of the distinct features allowing determination of the type of WBC. However, to distinguish between two types of cells with similar size, a different phenotype allowing the distinction of two types of cells should be measured. For example, mature basophils and small lymphocytes are about 9-12 jjm in diameter, and immature prolymphocytes and mature neutrophils are 12-14 μm in diameter. Different types of cells with similar size are difficult to determine based on only their size, and thus, in this case, conductivity and light scattering are simultaneously measured. […]"}, "cortisol": {"system": "cortisol", "assay": "Urinary cortisol concentration (125I-cortisol assay) in rats", "details": "rat urine", "method": "First, changes in concentrations of cortisol, which is a representative marker to determine whether the immune suppression has been overcome, according to administration of the Nelumbinis Semen extract were examined, as follows. After urine samples were collected from rats,\n(1) 1.0 ml of urine was placed into a tube with a cap, 2.0 ml dichloromethane was added to the tube, and the tube was covered with the cap with caution;\n(2) the mixture was vortexed for 5-10 min;\n(3) the mixture was centrifuged at 1500×g (rpm), the upper layer was aspirated, and 50 μl of the lower layer were aliquotted into coated tubes;\n(4) samples were evaporated for dryness.\nUrinary cortisol concentrations were measured as follows.\n(1) The coated tubes were individually labeled with NSB, Std (A-F), a control (CON6 No. 5) and sample numbers (for NSB, a green tube was used).\n(2) 25 μl of each of NSB, Std(A-F), a control (CON6 No. 5) and samples was added to the corresponding tube (free cortisol was added to the completely dried coated tube, and 25 μl of Std. A was added to the NSB tube).\n(3) 1.0 ml of ^125I-cortisol was added to the tubes, followed by mixing.\n(4) The tubes were incubated in a water bath at 37° C. for 45 min and aspirated.\n(5) After the content of the tubes was completely aspirated, radioactivity was measured for at least 1 min using a […]."}, "IL-2": {"system": "IL-2", "assay": "Blood IL-2 concentration (luminometric immunoassay) in rats", "details": "rat blood", "procedure": "(1) 100 μl of assay diluent QD6-23 were aliquotted onto a microplate strip;\n(2) 50 μl of each sample and a standard were aliquotted onto the strip;\n(3) the strip was incubated with shaking at room temperature for 2 hrs;\n(4) the strip was washed four times;\n(5) 200 μl of an IL-2 conjugate was aliquotted onto the strip, and the strip was incubated with shaking at room temperature for 3 hrs;\n(6) 200 μl of a substrate (luminol+hydrogen peroxide) was aliquotted onto the strip, and the strip was incubated at room temperature for 20-40 min;\n(7) emitted light was measured using a luminometer; and\n(8) IL-2 concentrations were determined using a standard quantitative curve."}, "[1]": {"system": "CREB, BDNF and trkB proteins", "assay": "2-DE of CREB, BDNF and trkB proteins in rat cerebral frontal cortex", "method": "Fourthly, an increase in the antidepressive markers, CREB, BDNF and trkB proteins, was examined in the rat cerebral frontal cortex by 2-DE, as follows. A behavioral test in rats was carried out for a period of three weeks, and the rats were administered with each drug. The brain frontal cortex was excised and centrifuged, and the supernatant was recovered. Each sample was mixed with an IEF sample buffer and loaded onto an IEF gel. Proteins were separated according to isoelectric point by isoelectric focusing (IEF) in the first dimension and according to molecular weight by SDS-PAGE at 100-200 V for about 1-2 hrs in the second dimension. The gel was stained by a Gel-Code Blue staining method and evaluated for elevated or newly emerged proteins by the antidepressive substances. The elevated or newly emerged proteins by the antidepressive substances were subjected to mass spectrometry."}, "[2]": {"system": "5-HT and NE neurotransmitters", "assay": "5-HT and NE levels in chronic CMS model by microdialysis and HPLC-ECD", "method": "Also, according to a biochemical method, the therapeutic efficacy of a candidate drug was primarily examined by measuring changes in 5-HT and Norepinephrine (NE) levels in a chronic CMS model by microdialysis and HPLC-ECD. Catecholamine content was measured using an HPLC system equipped with an electrochemical detector. A mobile phase containing 0.05 M monobasic sodium phosphate, 0.1 N sodium acetic acetate and 1% methanol was adjusted to pH 4.4 with a phosphate buffer for HPLC. […] was composed of a Supelcosil LC-8-DB 3-μm column (150×4.6 mm, Supelco, Bellefonte, Pa.) protected by an LC-18 guard column."}, "[3]": {"system": "CREB, BDNF and trkB genes", "assay": "Oligonucleotide microarray gene expression in cerebral frontal cortex", "details": "depression-induced animal", "source_text": "Total RNA was isolated from the cerebral frontal cortex, and double-stranded cDNA was synthesized using the isolated RNA and an oligo (dT) 24-T7 primer. cRNA was synthesized by in vitro transcription using the synthesized cDNA, and was biotin-labeled and applied to an oligonucleotide microarray to determine gene expression patterns in each test group."}, "[4]": {"system": "CREB, BDNF and trkB proteins", "assay": "Western blotting of CREB, BDNF and trkB proteins in rat cerebral frontal cortex", "method": "Thirdly, an increase in the antidepressive markers, CREB, BDNF and trkB proteins, was examined in the rat cerebral frontal cortex by Western blotting, as follows. A behavioral test in rats was carried out for a period of three weeks, and the rats were administered with each drug. The brain frontal cortex was excised and centrifuged, and the supernatant was recovered. Each sample was mixed with a SDS-PAGE sample buffer to reduce proteins and boiled to denature proteins. Samples were loaded onto a SDS-PAGE (sodium dodecyl sulfate poly acrylamide gel electrophoresis) gel and run at 100-200 V for about 1-2 hrs. The SDS-PAGE gel was transferred onto a PVDF or nitrocellulose membrane by electro-transferation. The membrane was incubated with a primary antibody for a target protein, washed and incubated with a secondary antibody. Then, the target protein was detected by an enhanced chemiluminescent method."}, "lymphocytes": {"system": "lymphocytes", "assay": "Lymphocyte cell number in rat blood (automatic analyzer)", "source_text": "Fourthly, changes in cell number of lymphocytes, which is a representative marker to determine whether the immune suppression has been overcome, according to administration of the Nelumbinis Semen extract, was examined as follows. After blood samples were collected from rats, changes in lymphocyte cell number were examined by the following method.\nWhen diluted blood corpuscles are suspended in an electrolyte solution (Isoton sol.) that is a separate […], the electrolyte suspension of particles is suctioned for 4 sec through an aperture with a predetermined size. The aperture is placed between an internal electrode and an external electrode, and a current flows between the electrodes. When particles pass through the aperture between the two electrodes, resistance increases while voltage decreases. The difference between decreased voltage and ground voltage is expressed as height by a threshold circuit. The number of pulses indicates the number of particles, and the amplitude of pulses is in proportion to the volume of corpulscles.\n2. Assay Method: Automatic Analyzer\n3. Machine Used: ADVIA120, Bayer, USA"}},
  "data": [
    {"smiles": "CNCCC(Oc1ccc(C(F)(F)F)cc1)c1ccccc1", "note": "(stereo not drawn) [Prozac, fluoxetine]", "values": [
      {"measurement": "cell number of WBC", "setting": "WBC", "value": "levels similar to a normal group"},
      {"measurement": "cortisol concentrations", "setting": "cortisol", "value": "levels similar to a normal group"},
      {"measurement": "IL-2 concentrations", "setting": "IL-2", "value": "levels similar to a normal group"},
      {"measurement": "protein level of BDNF", "setting": "[1]", "value": "significantly increase"},
      {"measurement": "protein level of CREB", "setting": "[1]", "value": "significantly increase"},
      {"measurement": "protein level of trkB", "setting": "[1]", "value": "significantly increase"},
      {"measurement": "level of 5-HT", "setting": "[2]", "value": "significantly increase"},
      {"measurement": "level of NE", "setting": "[2]", "value": "significantly increase"},
      {"measurement": "expression level of BDNF gene", "setting": "[3]", "value": "significantly increase"},
      {"measurement": "expression level of CREB gene", "setting": "[3]", "value": "significantly increase"},
      {"measurement": "expression level of trkB gene", "setting": "[3]", "value": "significantly increase"},
      {"measurement": "protein level of BDNF", "setting": "[4]", "value": "significantly increase"},
      {"measurement": "protein level of CREB", "setting": "[4]", "value": "significantly increase"},
      {"measurement": "protein level of trkB", "setting": "[4]", "value": "significantly increase"},
      {"measurement": "cell number of lymphocytes", "setting": "lymphocytes", "value": "levels similar to a normal group"}
    ]}
  ]
}
